Where two headings read alike, the source gives them in different places.

The assay has as its target T1, Human autotaxin enzyme (Homo sapiens, UniProt Q13822).
T1 construct: purchased R&D System
As to the kind of experiment: Evaluation of autotaxin inhibitor, Method C (Test Example 3): 18:0 Lyso PC, choline assay, Resorufin fluorescence. The class given is biochemical. In short, it runs like this: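 Choline-coupled fluorescence readout (20 min, resorufin at 531/598 nm) followed a 2 h room-temperature reaction of human autotaxin with 18:0 Lyso PC substrate (added as 200 μM solution) in pH 7.5 Tris buffer containing MgCl2 and Triton X-100. Percent inhibition scaled to no-compound (0%) and no-enzyme (100%) wells and plotted versus concentration.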

The mark [1] stands for this setting: Assay Method C (Test Example 3), human autotaxin, 18:0 Lyso PC substrate, read-out: Inhibitory Activity (autotaxin enzyme inhibitory activity, IC50 class).
The mark [2] stands for this setting: Assay Method C, human autotaxin, 18:0 Lyso PC substrate, read-out: Inhibitory Activity.

As to `CCCCCn1c(-c2ccc(C(=O)NCCNC)cc2)cc(=O)n2cc(-c3ccc(Cl)cc3)nc12` [Compound 522], the IC50 under setting [1] lay within 10 to 100 nM.
On the same count and under the same terms, as for `CCCCCn1c(N2CCNC(C(=O)O)C2)cc(=O)n2cc(-c3ccc(Cl)cc3)nc12` (centres unmarked) [Compound 658], the figure is 10 to 100 nM.
Take `CCCCCn1c(N2CCC[C@H]2C(=O)NCC(O)C(F)(F)F)cc(=O)n2cc(-c3ccc(Cl)cc3)nc12` (some centres unmarked) [Compound 785]: under setting [2], the IC50 was 100 to 1000 nM.
Take `N#CCCCCn1c(-c2ccc(C(=O)NCCN3CCOCC3)cc2)cc(=O)n2cc(-c3ccc(C(F)(F)F)cc3)nc12` [Compound 376]: under setting [1], the IC50 lay in the range of 10 to 100 nM.
With `CCCCCn1c(N2CCC[C@H]2C(=O)NCCN(C)C)cc(=O)n2cc(-c3ccc(Cl)cc3)nc12` [Compound 645], the IC50 under setting [1] is 100 to 1000 nM.
`CCCCCn1c(N2CCCC(C(=O)O)C2C)cc(=O)n2cc(-c3ccc(Cl)cc3)nc12` (centres unmarked) [Compound 809]: under setting [2], the IC50 was in the range of 100 to 1000 nM.
`NS(=O)(=O)CCNC(=O)Cc1cn(CCCC(F)(F)F)c2nc(-c3ccc(Cl)cc3)cn2c1=O` [Compound 855]: under setting [2], the IC50 was > 1000 nM.
For the compound `CCCCCn1c(N2CCN(C(=O)OC(C)(C)C)C(C(=O)NCC(=O)O)C2)cc(=O)n2cc(-c3ccc(Cl)cc3)nc12` (centres unmarked) [Compound 627], the IC50 under setting [1] fell in the range of 100 to 1000 nM.
The same measure, in the same setting: as for `CCn1c(N2CCC[C@H]2C(=O)N[C@@H](CCc2ccccc2)C(=O)O)cc(=O)n2cc(-c3ccc(Cl)cc3)nc12` [Compound 757], the figure is 10 to 100 nM.
Same read-out and setting: as for `CCCCCn1c(-c2ccc(C(=O)NCCS(=O)(=O)N3CCCC3)cc2)cc(=O)n2cc(-c3ccc(Cl)cc3)nc12` [Compound 513], the figure is 10 to 100 nM.
Same read-out and setting: as for `CCCCCn1c(/N=C(\C)OCc2ccc(C(=O)OC)cc2)cc(=O)n2cc(-c3ccc(Cl)cc3)nc12` [Compound 567], the figure is > 1000 nM; as for `CCCCCn1c(N2C[C@H](F)C[C@H]2C(=O)NC(C)(C)CC(=O)OCC)cc(=O)n2cc(-c3ccc(Cl)cc3)nc12` [Compound 595], 100 to 1000 nM.
As for `CCC(=O)CCn1c(C)cc(=O)n2cc(-c3ccc(Cl)cc3)nc12` [Compound 48], for the setting “Assay Method: Method C (Test Example 3), read-out: Inhibitory Activity (Enzyme Inhibitory Activity, IC50)”, the IC50 is > 1000 nM.
Regarding `CCCCCn1c(N2CCNC[C@@H]2C(=O)NCCC(=O)O)cc(=O)n2cc(-c3ccc(Cl)cc3)nc12` [Compound 663], the IC50 under setting [1] fell in the range of 100 to 1000 nM.
Turning to `CCCCCn1c(N2CCC(N3CC(C(=O)OC(C)(C)C)C3)C2)cc(=O)n2cc(-c3ccc(Cl)cc3)nc12` (centres unmarked) [Compound 324], under setting [1], the IC50 fell in the range of 100 to 1000 nM.
With `CN(CC(O)CO)C(=O)Cc1cn(CCCC(F)(F)F)c2nc(-c3ccc(Cl)cc3)cn2c1=O` (centres unmarked) [Compound 854], the IC50 under setting [2] was > 1000 nM.
Consider `CCCCCn1c(-c2ccc(C(=O)NCCCO)cc2)cc(=O)n2cc(-c3ccc(Cl)cc3)nc12` [Compound 481], for which the IC50 under setting [1] lay within 10 to 100 nM.
Still for that read-out and setting: as for `CCCCCn1c(N2CCC[C@H]2C(=O)N2CCC[C@H](C(=O)OCC)C2)cc(=O)n2cc(-c3ccc(Cl)cc3)nc12` [Compound 691], the figure is 100 to 1000 nM; as for `CCCCCn1c(N2CCC[C@H]2C(=O)N[C@@H](CCC)C(=O)O)cc(=O)n2cc(-c3ccc(Cl)cc3)nc12` [Compound 731], < 10 nM; as for `CCCCCn1c(N2CCC[C@H]2C(=O)NC(C)(C)CC(=O)O)cc(=O)n2cc(-c3ccc(Cl)cc3)nc12` [Compound 350], < 10 nM.
With `CCCCCn1c(-c2ccc(C(N)=O)cc2)cc(=O)n2cc(-c3ccc(Cl)cc3)nc12` [Compound 375], the IC50 under setting [1] was 10 to 100 nM.
The same measure, in the same setting: in the case of `CCCCCn1c(OCC2COC2)cc(=O)n2cc(-c3ccc(Cl)cc3)nc12` [Compound 720] it was 100 to 1000 nM.
Regarding `CCn1c(N2CCC[C@H]2C(=O)NCC(=O)O)cc(=O)n2cc(-c3ccc(Cl)cc3)nc12` [Compound 756], under setting [1], the IC50 was in the range of 100 to 1000 nM.
For `CCCCCn1c(N2CCC[C@H]2C(=O)N(CC(=O)O)Cc2ccccc2)cc(=O)n2cc(-c3ccc(Cl)cc3)nc12` [Compound 736], under setting [1], the IC50 was < 10 nM.
Turning to `CCCCCn1c(NCCC(=O)NCCC(=O)O)cc(=O)n2cc(-c3ccc(Cl)cc3)nc12` [Compound 617], under setting [1], the IC50 fell in the range of 100 to 1000 nM.
Turning to `CCCCCn1c(N2CC3CN(C(=O)OC(C)(C)C)CC3C2)cc(=O)n2cc(-c3ccc(Cl)cc3)nc12` (centres unmarked) [Compound 314], under setting [1], the IC50 was > 1000 nM.

For the origin of these results see patent US20160002247A1, “8-SUBSTITUTED IMIDAZOPYRIMIDINONE DERIVATIVE HAVING AUTOTAXIN INHIBITORY ACTIVITY” (THE UNIVERSITY OF TOKYO, priority 2013, published 2016).
